Source: patent US8853420B2, “Compounds” (Boehringer Ingelheim International GmbH, priority 2008, dated 2014)

Each compound was assayed against T1, Xenopus laevis Aurora B/INCENP complex (Xenopus laevis, UniProt Q6DE08) (assay: Aurora-B kinase assay (radioactive enzyme inhibition assay)). Settings: test substance at 1 μM; percentage of the positive control (maximum value without test substance).
T1 construct: equipped at the N-terminal position with a GST tag (amino acids 60-361); GST (N, cleaved yes); made in house; host or cells: E. coli BL21 (DE3)
T1 sequence (Q6DE08 60-361): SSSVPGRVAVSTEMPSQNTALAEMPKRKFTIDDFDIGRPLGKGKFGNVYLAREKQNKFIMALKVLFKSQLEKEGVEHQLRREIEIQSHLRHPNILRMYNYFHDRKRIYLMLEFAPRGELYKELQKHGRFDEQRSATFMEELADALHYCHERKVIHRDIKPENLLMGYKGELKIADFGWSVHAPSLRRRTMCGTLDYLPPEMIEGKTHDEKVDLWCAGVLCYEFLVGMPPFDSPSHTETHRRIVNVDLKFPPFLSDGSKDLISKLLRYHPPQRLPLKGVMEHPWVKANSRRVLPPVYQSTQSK
T1 sequence (O13024 790-847 partner limits assumed): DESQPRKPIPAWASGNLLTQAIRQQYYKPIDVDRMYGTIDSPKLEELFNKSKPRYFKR
Format: biochemical
Text: Example Aurora-B Kinase Assay
A radioactive enzyme inhibition assay was developed using E. coli-expressed recombinant Xenopus laevis Aurora B wild-type protein equipped at the N-terminal position with a GST tag (amino acids 60-361) in a complex with Xenopus laevis INCENP (amino acids 790-847), which is obtained from bacteria and purified. In equivalent manner a Xenopus laevis Aurora B mutant (G96V) in a complex with Xenopus laevis INCENP^790-847 may also be used.
Expression and Purification
The coding sequence for Aurora-B^60-361 from Xenopus laevis is cloned into a modified version of pGEX-6T (Amersham Biotech) via BamHI and SalI cutting sites. The vector contains two cloning cassettes which are separated by a ribosomal binding site, allowing bi-cistronic expression. In this configuration Xenopus laevis Aurora B is expressed by the first cassette, and the Xenopus laevis INCENP^790-847 is expressed by the second cassette. The resulting vector is pAUB-IN^847.
First of all the E. coli strain BL21 (DE3) is co-transformed with pUBS520 helper plasmid and pAUB-IN^847, after which protein expression is induced using 0.3 mM IPTG at an OD600 of 0.45-0.7. The expression is then continued for approx. 12-16 h at 23-25° C. with agitation.
The bacteria are then removed by centrifuging and the pellet is lysed in lysis buffer (50 mM Tris/Cl pH 7.6, 300 mM NaCl, 1 mM DTT, 1 mM EDTA, 5% glycerol, Roche Complete Protease Inhibitor tablets) using ultrasound, using 20-30 mL lysis buffer per liter of E. coli culture. The lysed material is freed from debris by centrifugation (12000 rpm, 45-60 min, JA20 rotor). The supernatant is incubated with 300 μL of equilibrated GST Sepharose Fast Flow (Amersham Biosciences) per liter of E. coli culture for 4-5 h at 4° C. Then the column material is washed with 30 volumes of lysis buffer and then equilibrated with 30 volumes of cleavage buffer (50 mM Tris/Cl pH 7.6, 150 mM NaCl, 1 mM DTT, 1 mM EDTA). To cleave the GST tag from Aurora B, 10 units of Prescission Protease (Amersham Biosciences) are used per milligram of substrate and the mixture is incubated for 16 h at 4° C. The supernatant which contains the cleavage product is loaded onto a 6 mL Resource Q column (Amersham Biosciences) equilibrated with ion exchange buffer (50 mM Tris/Cl pH 7.6, 150 mM NaCl, 1 mM DTT, 1 mM EDTA). The Aurora B/INCENP complex is caught as it flows through, then concentrated and loaded onto a Superdex 200 size exclusion chromatography (SEC) column equilibrated with SEC buffer (10 mM Tris/Cl pH 7.6, 150 mM NaCl, 1 mM DTT, 1 mM EDTA). Fractions which contain the AuroraB/INCENP complex are collected and concentrated using Vivaspin concentrators (molecular weight exclusion 3000-5000 Da) to a final concentration of 12 mg/mL. Aliquots (e.g. 240 ng/μL) for kinase assays are transferred from this stock solution into freezing buffer (50 mM Tris/Cl pH 8.0, 150 mM NaCl, 0.1 mM EDTA, 0.03% Brij-35, 10% glycerol, 1 mM DTT) and stored at −80° C.
Test substances are placed in a polypropylene dish (96 wells, Greiner #655 201), in order to cover a concentration frame of 10 μM-0.0001 μM. The final concentration of DMSO in the assay is 5%. 30 μL of protein mix (50 mM tris/Cl pH 7.5, 25 mM MgCl2, 25 mM NaCl, 167 μM ATP, 10 ng Xenopus laevis Aurora B/INCENP complex in freezing buffer) are pipetted into the 10 μl of test substance provided in 25% DMSO and this is incubated for 15 min at RT. Then 10 μL of peptide mix (100 mM tris/Cl pH 7.5, 50 mM MgCl2, 50 mM NaCl, 5 μM NaF, 5 μM DTT, 1 μCi gamma-P33-ATP [Amersham], 50 μM substrate peptide [biotin-[…] or multimers thereof, or biotin-[…] or multimers thereof, or biotin-[…]]) are added. The reaction is incubated for 75 min (ambient temperature) and stopped by the addition of 180 μL of 6.4% trichloroacetic acid and incubated for 20 min on ice. […]

Structure (SMILES) | remaining activity at 1 µM [%]
CC(C)Nc1ncc(-c2ccc3c(c2)NC(=O)/C3=C(\NC2CCN(C)CC2)c2ccccc2)cn1 [Example 79] | 103
COc1cc(N/C(=C2\C(=O)Nc3cc(-c4cnc(NC(C)C)nc4)ccc32)c2ccccc2)ccc1C(=O)O [Example 80] | 2.32
CC(C)Nc1ncc(-c2ccc3c(c2)NC(=O)/C3=C(\Nc2ccc(C(C)(C)C(=O)O)cc2)c2ccccc2)cn1 [Example 81] | 1.26
COC(=O)C(C)(C)c1ccc(N/C(=C2\C(=O)Nc3cc(-c4cnc(NC(C)C)nc4)ccc32)c2ccccc2)cc1 [Example 82] | 5.13
CC(C)Nc1ncc(-c2ccc3c(c2)NC(=O)/C3=C(\Nc2ccc(C(=O)O)cc2)c2ccccc2)cn1 [Example 83] | 1.04
COC(=O)c1ccc(N/C(=C2\C(=O)Nc3cc(-c4cnc(NC(C)C)nc4)ccc32)c2ccccc2)cc1 [Example 84] | 65.2
CNc1ccc(N/C(=C2\C(=O)Nc3cc(-c4cnc(NC(C)C)nc4)ccc32)c2ccccc2)cc1 [Example 85] | 50.3
CC(C)Nc1ncc(-c2ccc3c(c2)NC(=O)/C3=C(\Nc2ccc(N3CCN(C)CC3)nc2)c2ccccc2)cn1 [Example 86] | 16.8
Cc1cc(N/C(=C2\C(=O)Nc3cc(-c4cnc(NC(C)C)nc4)ccc32)c2ccccc2)ccn1 [Example 87] | 2.67
CC(C)Nc1ncc(-c2ccc3c(c2)NC(=O)/C3=C(\Nc2ccc(OCCN3CCCC3)cc2)c2ccccc2)cn1 [Example 88] | 3.13
CC(C)Nc1ncc(-c2ccc3c(c2)NC(=O)/C3=C(\Nc2ccc(OCCCN(C)C)cc2)c2ccccc2)cn1 [Example 89] | 5.97
CC(C)Nc1ncc(-c2ccc3c(c2)NC(=O)/C3=C(\Nc2cccc(CN3CCCC3)c2)c2ccccc2)cn1 [Example 91] | 9.48
CC(C)Nc1ncc(-c2ccc3c(c2)NC(=O)/C3=C(\Nc2ccc(N3CCN(C)CC3)cc2)c2ccccc2)cn1 [Example 92] | 3.85
CC(C)Nc1ncc(-c2ccc3c(c2)NC(=O)/C3=C(\Nc2ccc(N3CCN(C)[C@@H](C)C3)cc2)c2ccccc2)cn1 [Example 93] | 2.92
CC(C)Nc1ncc(-c2ccc3c(c2)NC(=O)/C3=C(\Nc2ccc3c(c2)CN(C)C3)c2ccccc2)cn1 [Example 94] | 5.83
CC(C)Nc1ccc(-c2ccc3c(c2)NC(=O)/C3=C(\Nc2ccc(C(C)(C)C(=O)N3CC[C@H](N(C)C)C3)cc2)c2ccccc2)cn1 [Example 100] | 3.36
CC(C)Nc1ccc(-c2ccc3c(c2)NC(=O)/C3=C(\Nc2ccc(C(C)(C)C(=O)N3CC[C@@H](N(C)C)C3)cc2)c2ccccc2)cn1 [Example 101] | 3.62
CC(C)Nc1ccc(-c2ccc3c(c2)NC(=O)/C3=C(\Nc2ccc(C(C)(C)C(=O)N(C)C3CCN(C)CC3)cc2)c2ccccc2)cn1 [Example 103] | 3.84
COc1cc(N/C(=C2\C(=O)Nc3cc(-c4ccc(NC(C)C)nc4)ccc32)c2ccccc2)ccc1C(=O)N1CCCN(C)CC1 [Example 105] | 1.57
COc1cc(N/C(=C2\C(=O)Nc3cc(-c4ccc(NC(C)C)nc4)ccc32)c2ccccc2)ccc1C(=O)N1CCN(C(C)C)CC1 [Example 106] | 2.94
COc1cc(N/C(=C2\C(=O)Nc3cc(-c4ccc(NC(C)C)nc4)ccc32)c2ccccc2)ccc1C(=O)N1CCC(N(C)C)CC1 [Example 107] | 1.66
COc1cc(N/C(=C2\C(=O)Nc3cc(-c4ccc(NC(C)C)nc4)ccc32)c2ccccc2)ccc1C(=O)N1C[C@H]2C[C@@H]1CN2C [Example 108] | 1.45
COc1cc(N/C(=C2\C(=O)Nc3cc(-c4ccc(NC(C)C)nc4)ccc32)c2ccccc2)ccc1C(=O)N1CC[C@H](N(C)C)C1 [Example 110] | 1.54
COc1cc(N/C(=C2\C(=O)Nc3cc(-c4ccc(NC(C)C)nc4)ccc32)c2ccccc2)ccc1C(=O)N(C)CCN(C)C [Example 111] | 2.35
COc1cc(N/C(=C2\C(=O)Nc3cc(-c4ccc(NC(C)C)nc4)ccc32)c2ccccc2)ccc1C(=O)N(C)C1CCN(C)CC1 [Example 112] | 1.7

The remaining lines, values ahead:

remaining activity at 1 µM [%] | Structure (SMILES)
4.64 | CC(C)Nc1ccc(-c2ccc3c(c2)NC(=O)/C3=C(\Nc2ccc(C(C)(C)C(=O)N3CCN[C@@H](C)C3)cc2)c2ccccc2)cn1 [Example 99]
2.07 | CC(C)Nc1ccc(-c2ccc3c(c2)NC(=O)/C3=C(\Nc2ccc(C(C)(C)C(=O)NC3CCN(C)CC3)cc2)c2ccccc2)cn1 [Example 102]
1.71 | CCN1CCC2(CCN(C(=O)c3ccc(N/C(=C4\C(=O)Nc5cc(-c6ccc(NC(C)C)nc6)ccc54)c4ccccc4)cc3OC)C2)C1 (centres unmarked) [Example 104]
2.08 | COc1cc(N/C(=C2\C(=O)Nc3cc(-c4ccc(NC(C)C)nc4)ccc32)c2ccccc2)ccc1C(=O)N1CCN(C)CC1 [Example 109]
4.25 | CCN1CCN(C(=O)c2ccc(N/C(=C3\C(=O)Nc4cc(-c5ccc(NC(C)C)nc5)ccc43)c3ccccc3)cc2)CC1 [Example 113]
7.11 | CC(C)CN1CCN(C(=O)c2ccc(N/C(=C3\C(=O)Nc4cc(-c5ccc(NC(C)C)nc5)ccc43)c3ccccc3)cc2)CC1 [Example 114]
3.25 | CC(C)Nc1ccc(-c2ccc3c(c2)NC(=O)/C3=C(\Nc2ccc(C(=O)N3CCN[C@H](C)C3)cc2)c2ccccc2)cn1 [Example 115]
3.03 | CCN1CCC2(CCN(C(=O)c3ccc(N/C(=C4\C(=O)Nc5cc(-c6ccc(NC(C)C)nc6)ccc54)c4ccccc4)cc3)C2)C1 (centres unmarked) [Example 117]
4.44 | CC(C)Nc1ccc(-c2ccc3c(c2)NC(=O)/C3=C(\Nc2ccc(C(=O)N3CCN(CC4CC4)CC3)cc2)c2ccccc2)cn1 [Example 118]
3.54 | CC(C)Nc1ccc(-c2ccc3c(c2)NC(=O)/C3=C(\Nc2ccc(C(=O)N3CCCN(C4CC4)CC3)cc2)c2ccccc2)cn1 [Example 119]
2.75 | CC(C)Nc1ccc(-c2ccc3c(c2)NC(=O)/C3=C(\Nc2ccc(C(=O)N3CCCN(C)CC3)cc2)c2ccccc2)cn1 [Example 120]
3.31 | CC(C)Nc1ccc(-c2ccc3c(c2)NC(=O)/C3=C(\Nc2ccc(C(=O)N3CCC(N4CCOCC4)CC3)cc2)c2ccccc2)cn1 [Example 121]
4 | CC(C)Nc1ccc(-c2ccc3c(c2)NC(=O)/C3=C(\Nc2ccc(C(=O)N3CCC(N4CCCC4)CC3)cc2)c2ccccc2)cn1 [Example 122]
2.69 | CC(C)Nc1ccc(-c2ccc3c(c2)NC(=O)/C3=C(\Nc2ccc(C(=O)N3CCN(C(C)C)CC3)cc2)c2ccccc2)cn1 [Example 123]
3.38 | CC(C)Nc1ccc(-c2ccc3c(c2)NC(=O)/C3=C(\Nc2ccc(C(=O)N3C[C@@H](C)N[C@@H](C)C3)cc2)c2ccccc2)cn1 [Example 124]
8.83 | CC(C)Nc1ccc(-c2ccc3c(c2)NC(=O)/C3=C(\Nc2ccc(C(=O)N3CCN(CC(F)(F)F)CC3)cc2)c2ccccc2)cn1 [Example 125]
